Molecular target: T1, C5AR1 (Homo sapiens, UniProt P21730)
T1 construct: host or cells: CHO-K1
T1 sequence (P21730 1-350): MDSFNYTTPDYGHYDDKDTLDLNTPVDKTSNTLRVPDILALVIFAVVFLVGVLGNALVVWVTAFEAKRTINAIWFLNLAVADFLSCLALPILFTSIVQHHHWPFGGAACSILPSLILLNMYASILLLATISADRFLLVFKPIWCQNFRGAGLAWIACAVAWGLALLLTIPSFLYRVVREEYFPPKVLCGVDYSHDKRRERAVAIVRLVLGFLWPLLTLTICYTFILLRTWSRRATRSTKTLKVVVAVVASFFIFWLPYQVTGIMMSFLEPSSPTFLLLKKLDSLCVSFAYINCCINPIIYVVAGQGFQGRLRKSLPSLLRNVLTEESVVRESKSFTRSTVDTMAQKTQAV
Assay: In vitro assay: antagonism of C5a-induced beta-arrestin recruitment (PathHunter) in CHO-K1 C5AR1 beta-arrestin cell line
Assay type: cell-based
Conditions: antagonistic activity, 1-10 nM C5a agonist, geometric mean where several measurements, read-out: C5aR IC50
Method: 5 μl Antagonist at 6-fold end concentration or DMSO control is added to assay medium and subsequently 5 μl 1-10 nM C5a agonist at 6 fold end concentration. Cells are centrifuged for 1 min at 1000 rpm and incubated for 1.5 hour in at 37° C. Plates are equilibrated at room temperature for several minutes before adding 12 μl/well Detection Reagent (PathHunter Detection Kit, DiscoverX, Cat #93-0001). Plates are centrifuged for 1 min at 1000 rpm and incubated for 45 minutes at RT before being measured on a Fluostar Optima, BMG Labtech. IC50 values are calculated from a serial dilution range of antagonist using inhouse software and given in nmol/l.
The calculated IC50 values may fluctuate depending on the daily cellular assay performance. Fluctuations of this kind are known to those skilled in the art. Average IC50 values from several measurements are given as geometric mean values.

SMILES	IC50
COc1nccc(C(F)F)c1N1CCC(N2C(=O)N(Cc3ccccc3C3CC3)c3n[nH]cc3C2C)CC1 (single isomer, unassigned) [Example 370]	19 nM
COc1nccc(C(F)F)c1N1CCC(N2C(=O)N(Cc3ccccc3C3CC3)c3n[nH]cc3C2C)CC1 (single isomer, unassigned) [Example 371]	1330 nM
CC1c2c[nH]nc2N(Cc2ccccc2C2CC2)C(=O)N1C1CCN(c2c(F)cccc2Cl)CC1 (single isomer, unassigned) [Example 372]	11 nM
CC1c2c[nH]nc2N(Cc2ccccc2C2CC2)C(=O)N1C1CCN(c2c(F)cccc2Cl)CC1 (single isomer, unassigned) [Example 373]	1010 nM
COc1nccc(C(F)(F)F)c1N1CCC(N2C(=O)N(Cc3ccccc3C3CC3)c3nn(C)cc3C2C)CC1 (single isomer, unassigned) [Example 374]	8 nM
COc1nccc(C(F)(F)F)c1N1CCC(N2C(=O)N(Cc3ccccc3C3CC3)c3nn(C)cc3C2C)CC1 (single isomer, unassigned) [Example 375]	146 nM
COc1nccc(Cl)c1N1CCC(N2C(=O)N(Cc3ccccc3C(F)(F)F)c3nn(C)cc3C2C)CC1 (single isomer, unassigned) [Example 376]	5 nM
COc1nccc(Cl)c1N1CCC(N2C(=O)N(Cc3ccccc3C(F)(F)F)c3nn(C)cc3C2C)CC1 (single isomer, unassigned) [Example 377]	552 nM
COc1nccc(Cl)c1N1CCC(N2C(=O)N(Cc3ccccc3C3CC3)c3nn(C)cc3C2C)CC1 (single isomer, unassigned) [Example 378]	6 nM
COc1nccc(Cl)c1N1CCC(N2C(=O)N(Cc3ccccc3C3CC3)c3nn(C)cc3C2C)CC1 (single isomer, unassigned) [Example 379]	412 nM
COc1nccc(C)c1N1CCC(N2C(=O)N(Cc3ccccc3C3CC3)c3nn(C4CC4)cc3C2C)CC1 (single isomer, unassigned) [Example 380]	21 nM
COc1nccc(C)c1N1CCC(N2C(=O)N(Cc3ccccc3C3CC3)c3nn(C4CC4)cc3C2C)CC1 (single isomer, unassigned) [Example 381]	190 nM
COc1nccc(C(F)F)c1N1CCC(N2C(=O)N(Cc3ccccc3C3CC3)c3nn(C4CC4)cc3C2C)CC1 (single isomer, unassigned) [Example 382]	21 nM
COc1nccc(C(F)F)c1N1CCC(N2C(=O)N(Cc3ccccc3C3CC3)c3nn(C4CC4)cc3C2C)CC1 (single isomer, unassigned) [Example 383]	204 nM
CC1c2cn(C)nc2N(Cc2ccccc2C2CC2)C(=O)N1C1CCN(c2c(F)cccc2Br)CC1 (single isomer, unassigned) [Example 384]	12 nM
CC1c2cn(C)nc2N(Cc2ccccc2C2CC2)C(=O)N1C1CCN(c2c(F)cccc2Br)CC1 (single isomer, unassigned) [Example 385]	491 nM
Cc1cccc(F)c1N1CCC(N2Cc3nn(C)cc3N(Cc3ncccc3C(F)(F)F)C2=O)CC1 [Example 15]	45 nM
Cc1cccc(F)c1N1CCC(N2Cc3c(ncn3C)N(Cc3ccccc3C(F)(F)F)C2=O)CC1 [Example 16]	74 nM
COC(=O)Cn1cc2c(n1)N(Cc1ccccc1C(F)(F)F)C(=O)N(C1CCN(c3c(C)cccc3F)CC1)C2 [Example 17]	13 nM
COC(=O)Cn1cc2c(n1)CN(C1CCN(c3c(C)cccc3F)CC1)C(=O)N2Cc1ccccc1C(F)(F)F [Example 18]	132 nM
COC(=O)Cn1ncc2c1CN(C1CCN(c3c(C)cccc3F)CC1)C(=O)N2Cc1ccccc1C(F)(F)F [Example 19]	637 nM
Cc1cccc(F)c1N1CCC(N2Cc3cn(CCO)nc3N(Cc3ccccc3C(F)(F)F)C2=O)CC1 [Example 20]	12 nM
Cc1cccc(F)c1N1CCC(N2Cc3cn(C)nc3N(Cc3ccccc3OC3CC3)C2=O)CC1 [Example 21]	13 nM
Cc1cccc(F)c1N1CCC(N2Cc3cn(C)nc3N(Cc3ncccc3C(F)(F)F)C2=O)CC1 [Example 22]	10 nM

SMILES	IC50
Cc1cccc(F)c1N1CCC(N2Cc3cn(CC#N)nc3N(Cc3ccccc3C(F)(F)F)C2=O)CC1 [Example 24]	15 nM
Cc1cccc(F)c1N1CCC(N2Cc3cn(CC(C)(C)O)nc3N(Cc3ccccc3C(F)(F)F)C2=O)CC1 [Example 25]	18 nM
Cc1cccc(F)c1N1CCC(N2Cc3cn(CCN)nc3N(Cc3ccccc3C(F)(F)F)C2=O)CC1 [Example 26]	173 nM
COC(=O)C(C)(C)n1cc2c(n1)N(Cc1ccccc1C(F)(F)F)C(=O)N(C1CCN(c3c(C)cccc3F)CC1)C2 [Example 27]	17 nM
CCOC(Cn1cc2c(n1)N(Cc1ccccc1C(F)(F)F)C(=O)N(C1CCN(c3c(C)cccc3F)CC1)C2)OCC [Example 28]	83 nM
Cc1cccc(F)c1N1CCC(N2Cc3cn(CC(N)=O)nc3N(Cc3ccccc3C(F)(F)F)C2=O)CC1 [Example 29]	103 nM
Cc1cccc(F)c1N1CCC(N2Cc3cn(CC(=O)N(C)C)nc3N(Cc3ccccc3C(F)(F)F)C2=O)CC1 [Example 30]	95 nM
COC(=O)C(C)Cn1cc2c(n1)N(Cc1ccccc1C(F)(F)F)C(=O)N(C1CCN(c3c(C)cccc3F)CC1)C2 (centres unmarked) [Example 31]	13 nM
Cc1cccc(F)c1N1CCC(N2Cc3cn(C(C)(C)CO)nc3N(Cc3ccccc3C(F)(F)F)C2=O)CC1 [Example 32]	14 nM
Cc1cccc(F)c1N1CCC(N2Cc3cn(CC(C)O)nc3N(Cc3ccccc3C(F)(F)F)C2=O)CC1 (centres unmarked) [Example 33]	12 nM
COC1CN(CCn2cc3c(n2)N(Cc2ccccc2C(F)(F)F)C(=O)N(C2CCN(c4c(C)cccc4F)CC2)C3)C1 [Example 34]	22 nM
Cc1cccc(F)c1N1CCC(N2Cc3cn(C)nc3N(Cc3nc(Cl)ccc3C(F)(F)F)C2=O)CC1 [Example 35]	9 nM
Cc1cccc(F)c1N1CCC(N2Cc3cn(C)nc3N(Cc3nc(F)ccc3C(F)(F)F)C2=O)CC1 [Example 36]	7 nM
Cc1ccc(C(F)(F)F)c(CN2C(=O)N(C3CCN(c4c(C)cccc4F)CC3)Cc3cn(C)nc32)n1 [Example 37]	53 nM
COc1ccc(C(F)(F)F)c(CN2C(=O)N(C3CCN(c4c(C)cccc4F)CC3)Cc3cn(C)nc32)n1 [Example 38]	12 nM
Cc1cccc(F)c1N1CCC(N2Cc3cn(CC(C)CO)nc3N(Cc3ccccc3C(F)(F)F)C2=O)CC1 (centres unmarked) [Example 39]	16 nM
Cc1cccc(F)c1N1CCC(N2Cc3cn(CC(O)CO)nc3N(Cc3ccccc3C(F)(F)F)C2=O)CC1 (centres unmarked) [Example 40]	27 nM
COC[C@H](O)Cn1cc2c(n1)N(Cc1ccccc1C(F)(F)F)C(=O)N(C1CCN(c3c(C)cccc3F)CC1)C2 [Example 41]	17 nM
COC(=O)C(Cl)Cn1cc2c(n1)N(Cc1ccccc1C(F)(F)F)C(=O)N(C1CCN(c3c(C)cccc3F)CC1)C2 (centres unmarked) [Example 42]	24 nM
Cc1cccc(F)c1N1CCC(N2Cc3cn(CC(C)C#N)nc3N(Cc3ccccc3C(F)(F)F)C2=O)CC1 (centres unmarked) [Example 43]	18 nM
Cc1cccc(F)c1N1CCC(N2Cc3cn(C)nc3N(Cc3ccccc3C(F)(F)F)C2=O)C1 (centres unmarked) [Example 44]	35 nM
Cc1cccc(F)c1N1CCC(N2Cc3cn(CC(C)CN)nc3N(Cc3ccccc3C(F)(F)F)C2=O)CC1 (centres unmarked) [Example 45]	203 nM
COC[C@@H](O)Cn1cc2c(n1)N(Cc1ccccc1C(F)(F)F)C(=O)N(C1CCN(c3c(C)cccc3F)CC1)C2 [Example 46]	21 nM
